Laboratory results: US9006283B2, “Methods of modifying amyloid β oligomers using non-peptidic compounds” (Acumen Pharmaceuticals, Inc., priority 2007, dated 2015)
Blank lines part the entries; values can stand above or below the compound they belong to.

Columns and labels:
[1] = cited from earlier work
[2] = molecular target: Aβ1-42 monomer assembly into Aβ oligomers (ADDLs) (Homo sapiens (Human), UniProt P05067); assay: FRET assay of Aβ1-42 oligomer (ADDL) assembly inhibition; type: biochemical
Aβ1-42 monomer assembly into Aβ oligomers (ADDLs), sequence (P05067 672-713): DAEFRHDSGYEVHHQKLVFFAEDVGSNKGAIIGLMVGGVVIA
From the text: Fluorescence (or Förster) Resonance Energy Transfer (FRET) is a distance-dependent, non-radiative transfer of energy in which the de-excitation of one fluorophore (donor) is coupled to excitation of another fluorophore (acceptor). FRET occurs if (1) the quantum of energy emitted by a donor fluorophore corresponds to an acceptor fluorophore's excitation energy, (2) the orientations of donor and acceptor transition dipoles are nearly parallel and (3) the donor fluorescent emission spectrum overlaps the acceptor absorption spectrum.
In this assay, assembly of Aβ1-42 oligomer formation is monitored by FRET using N-terminal conjugates of fluorescein-Aβ1-42 as both the donor and acceptor fluorophore (fluorescein-fluorescein Ro˜45 Å). Aβ1-42 monomers assembling into oligomeric species results in a decrease of fluorescence as the fluorescein labeled Aβ1-42 peptides become proximal to each other and FRET efficiency increases. Inhibition of Aβ1-42 assembly is observed as the absence or attenuation of fluorescein quenching.
FRET and FP assays are performed in 384-well Corning Non-Binding Surface, black, opaque microtiter plates, and the assay buffer consists of 50 mM MOPS-Tris (pH 8.0) with 100 mM MgCl2. […] ADDL assembly is monitored on a Tecan GENios Pro plate reader, exciting at a wavelength of 485 nm and detecting emission at a wavelength of 515 nm. […]

[3] = cited from earlier work; remark: listed apart in the source

SMILES: Oc1c(I)cc(Cl)c2cccnc12 [Clioquinol]
patients' cognitive ability ([1]; compared to untreated patients): stabilize
Aβ1-42 levels in plasma ([1]; patients' plasma): lower

inhibition of Aβ1-42 oligomer assembly ([2]; FIG. 1, Test Compound A ranging from 0.05 to 3 mM (0.05 to 3 μM in figure legend)): dose dependent inhibition
SMILES: CCOC(=O)c1c(NC(=O)C(=O)N/N=C/c2ccccc2O)sc2c1CCC(C)C2 (stereo not drawn) [Compound 4, 2-{[1-(2-Hydroxyphenyl)-meth-(E)-ylidene-hydrazinooxalyl]-amino}-6-methyl-4,5,6,7-tetrahydro-benzo[b]thiophene-3-carboxylic acid ethyl ester]

inhibition of Aβ1-42 monomer assembly into Aβ oligomers ([2]; FIG. 2, standard FRET assay conditions of Example 1): inability
SMILES: NCCCS(=O)(=O)O [Alzhemed, 3-amino-1-propanesulfonic acid]
cognitive decline ([3]; 20 month open-label extension of Phase II trial, some patients with mild AD): slowed cognitive decline
efficacy ([3]; blinded phase of the study): no efficacy was observed
